Measured values from patent publication US11021481B2, “Substituted isoindolin-1-ones and 2,3-dihydro-1h-pyrrolo[3,4-c]pyridin-1-ones as HPK1 antagonists” (Nimbus Saturn, Inc., priority 2019, dated 2021).

Biological target: HPK1 (Homo sapiens (Human), UniProt Q92918)
Experiment: HPK1 biochemical enzyme assay (microfluidic mobility shift assay)
Settings: 1.5 nM HPK1, ATP 1 mM final, 30 min preincubation, 60 min at RT, Caliper EZ Reader; read-out: HPK1 1000UMATP caliper IC50
Summary of the method: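 Ten-point compound titrations (top 3 μM final) preincubated 30 min with HPK1 and substrate, then reaction started with 1 mM ATP and 1 μM substrate, 5 mM MgCl2. After 60 min at RT, reaction terminated and product measured by microfluidic mobility shift.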

Sequence of HPK1 (Q92918 whole entry): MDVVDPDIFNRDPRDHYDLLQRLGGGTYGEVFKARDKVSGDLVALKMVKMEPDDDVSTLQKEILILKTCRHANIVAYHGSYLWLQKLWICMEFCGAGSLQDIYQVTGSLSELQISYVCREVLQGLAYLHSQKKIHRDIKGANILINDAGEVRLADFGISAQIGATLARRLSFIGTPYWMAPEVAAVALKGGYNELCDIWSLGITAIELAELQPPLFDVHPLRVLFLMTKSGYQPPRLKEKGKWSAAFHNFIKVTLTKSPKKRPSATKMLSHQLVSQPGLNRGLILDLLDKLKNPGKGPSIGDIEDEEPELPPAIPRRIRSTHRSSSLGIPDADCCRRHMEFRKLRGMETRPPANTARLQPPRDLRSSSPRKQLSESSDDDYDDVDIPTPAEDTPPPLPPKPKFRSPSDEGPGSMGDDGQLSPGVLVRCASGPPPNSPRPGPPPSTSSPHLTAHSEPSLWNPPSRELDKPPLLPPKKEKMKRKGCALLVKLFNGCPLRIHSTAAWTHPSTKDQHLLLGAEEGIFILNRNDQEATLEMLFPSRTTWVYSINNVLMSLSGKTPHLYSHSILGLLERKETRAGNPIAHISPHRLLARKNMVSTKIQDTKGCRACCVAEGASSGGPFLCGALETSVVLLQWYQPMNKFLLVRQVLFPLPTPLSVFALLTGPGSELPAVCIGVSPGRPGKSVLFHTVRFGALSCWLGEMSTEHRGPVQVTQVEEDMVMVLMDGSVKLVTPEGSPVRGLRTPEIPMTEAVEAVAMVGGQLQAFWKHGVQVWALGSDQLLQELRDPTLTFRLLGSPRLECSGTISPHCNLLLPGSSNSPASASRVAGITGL

IC50, < 100 nM:
Cn1ccc2c(-c3ncc(Nc4cccc(N5C[C@H](N)CC5=O)n4)c4c3CNC4=O)ccnc21 [I-691, (R)-7-((6-(4-amino-2-oxopyrrolidin-1-yl)pyridin-2-yl)amino)-4-(1-methyl-1H-pyrrolo[2,3-b]pyridin-4-yl)-2,3-dihydro-1H-pyrrolo[3,4-c]pyridin-1-one]
Cn1ccc2c(-c3ncc(Nc4cccc(N5C[C@@H](N)CC5=O)n4)c4c3CNC4=O)ccnc21 [I-692, (S)-7-((6-(4-amino-2-oxopyrrolidin-1-yl)pyridin-2-yl)amino)-4-(1-methyl-1H-pyrrolo[2,3-b]pyridin-4-yl)-2,3-dihydro-1H-pyrrolo[3,4-c]pyridin-1-one]
CN(C)Cc1nc(Nc2ccc(-c3cnc4cc(F)ccn34)c3c2C(=O)NC3)ccc1N1CCOCC1 [I-693, 7-((6-((dimethylamino)-methyl)-5-morpholino-pyridin-2-yl)amino)-4-(7-fluoroimidazo [1,2-a]pyridin-3-yl)isoindolin-1-one]
CC(C)([C@@H]1CN(c2ccc(Nc3ccc(-c4cnc5cc(F)ccn45)c4c3C(=O)NC4)nc2)CCO1)N1CC(O)C1 [I-697, (S)-4-(7-fluoroimidazo [1,2-a]pyridin-3-yl)-7-((5-(2-(2-(3-hydroxyazetidin-1-yl)propan-2-yl)morpholino)pyridin-2-yl)amino)isoin-dolin-1-one]
CC(C)([C@H]1CN(c2ccc(Nc3ccc(-c4cnc5cc(F)ccn45)c4c3C(=O)NC4)nc2)CCO1)N1CC(O)C1 [I-698]
CN(C)Cc1cccc(Nc2ccc(-c3cnc4cc(F)ccn34)c3c2C(=O)NC3)n1 [I-699, 7-((6-((dimethylamino)methyl)pyri-din-2-yl)amino)-4-(7-fluoroimidazo [1,2-a]pyridin-3-yl)isoindolin-1-one]
CN(C)Cc1nc(Nc2ccc(-c3cnc4cc(F)ccn34)c3c2C(=O)NC3)ccc1N1CC[C@@H](F)[C@H](O)C1 [I-700, 7-((6-((dimethylamino)-methyl)-5-((3R,4R]-4-fluoro-3-hydroxypiperidin-1-yl)pyridin-2-yl)amino)-4-(7-fluoroimidazo [1,2-a]pyridin-3-yl)isoindolin-1-one]
CN(C)Cc1nc(Nc2ccc(-c3cnc4cc(F)ccn34)c3c2C(=O)NC3)ccc1N1CC[C@H](F)[C@@H](O)C1 [I-701, 7-((6-((dimethylamino)-methyl)-5-((3S.4S]-4-fluoro-3-hydroxypiperidin-1-yl)pyridin-2-yl)amino)-4-(7-fluoroimidazo [1,2-a]pyridin-3-yl)isoindolin-1-one]
NCc1nc(Nc2ccc(-c3cnc4cc(F)ccn34)c3c2C(=O)NC3)ccc1[C@@H]1CCOC1 [I-702, (S)-7-((6-(aminomethyl)-5-(tetrahydrofuran-3-yl)pyridin-2-yl)amino)-4-(7-fluoroimidazo [1,2-a]pyridin-3-yl)isoindolin-1-one]
Cc1ccn2c(-c3ccc(Nc4ccc([C@@H]5CCOC5)c(CN(C)C)n4)c4c3CNC4=O)cnc2c1F [I-704, (S)-7-((6-((dimethylamino)-methyl)-5-(tetrahydrofuran-3-yl)pyridin-2-yl)amino)-4-(8-fluoro-7-methylimidazo [1,2-a]pyridin-3-yl)isoindolin-1-one]
CN(C)Cc1nc(Nc2cnc(-c3ccnc4c3ccn4C)c3c2C(=O)NC3)ccc1[C@H]1CCOC1 [I-708, (R)-7-((6-((dimethylamino)methyl)-5-(tetrahydrofuran-3-yl)pyridin-2-yl)amino)-4-(1-methyl-1H-pyrrolo[2,3-b]pyridin-4-yl)-2,3-dihydro-1H-pyrrolo[3,4-c]pyridin-1-one]
Cc1cccc2c(-c3ccc(Nc4ccc([C@@H]5CCOC5)c(CN(C)C)n4)c4c3CNC4=O)cnn12 [I-709, (S)-7-((6-((dimethylamino)-methyl)-5-(tetrahydrofuran-3-yl)pyridin-2-yl)amino)-4-(7-methylpyrazolo[1,5-a]pyridin-3-yl)isoindolin-1-one]
